Experimental data reported in paper PMC12238723, “Phase I Clinical Trial of CVL218, a Novel PARP1/2 Inhibitor, in Patients with Advanced Solid Tumors” (MedComm, 2025).

System: patients with advanced solid tumors
Assay: Treatment-related adverse events (CTCAE v5.0), phase I dose escalation
Format: in vivo
Description: This study was a single‐arm, dose‐escalation phase I trial conducted in Sun Yat‐sen University Cancer Center in China. This study assessed CVL218 in patients with histologically or cytologically confirmed advanced solid tumors who were in PD after standard therapeutic regimens or lacked standard treatment options. Inclusion criteria included: age 18–75 years; with at least one measurable and evaluable target lesion per Response Evaluation Criteria in Solid Tumors 1.1 (RECIST 1.1); ECOG performance status of 0 or 1; adequate hematological, renal, cardiac, and hepatic functions and a life expectancy ≥12 weeks. Key exclusion criteria included prior usage of PARP inhibitors; allergic to the research drug or its components; with active, unstable systemic diseases or active, uncontrolled infection; a history of other malignancies within 5 years, and pregnant or lactating women.
CVL218 was administered orally, and this dose‐escalation trial included nine dose levels: 100 mg QD (50 mg BID), 200 mg QD (100 mg BID), 400 mg QD (200 mg BID), 700 mg QD (350 mg BID), 1000 mg QD (500 mg BID), 1200 mg QD (600 mg BID), 1400 mg QD (700 mg BID), 1700 mg QD (850 mg BID), and 2000 mg QD (1000 mg BID). Patients enrolled in the study received a single oral dose on the first day, followed by continuous multiple dosing (twice a day taking 12 h apart) after 72 h, with the treatment cycle lasting 4 weeks. The period during which patients received a single dose is designated as cycle 0 (C0), lasting 72 h. After this period, patients begin multiple dosing, referred to as cycle 1 (C1). An initial accelerated titration design was employed for the three lowest dose groups, and the “3+3” design was applied starting with the 300 mg BID cohort.
The primary objectives were to assess safety and tolerability as well as to determine the MTD, DLT, and dose recommended for further study. DLT was defined as any of the following events occurring during cycle 0 (including 72 h wash‐out period after a single dose) and cycle 1 per Common Terminology Criteria for Adverse Events (CTCAE) version 5.0: grade 4 anemia; grade 4 neutropenia; grade 3 neutropenia with fever ≥38.5°C; grade 4 thrombocytopenia; grade 3 thrombocytopenia associated with bleeding; grade ≥2 neurotoxicity; any other grade ≥3 nonhematological toxicities (excluding alopecia). The secondary objectives were to assess the PK and preliminary efficacy of CVL218.
Subjects who received at least one dose of CVL218 with postadministration safety records were included in safety analysis set. Subjects who received at least one dose of CVL218 with at least one evaluable PK parameter were included in PK analysis set. Per‐protocol set were used for efficacy analysis. Descriptive statistics of safety were presented per CTCAE v5.0. The PK parameters T max and T 1/2 were shown as the median (min, max) and mean ± SD, respectively. A two‐sided p < 0.05 was considered to indicate statistical significance. Statistical analysis was performed by using GraphPad prism 8.0.2 and R‐4.3.3.

CNCc1ccc(-c2cc3cc(F)cc(C(N)=O)c3o2)cc1.Cl [CVL218]
Abdominal distension (600 mg BID, ≥G3): 0 n (%)
Abdominal pain (600 mg BID, ≥G3): 0 n (%)
Abdominal pain upper (600 mg BID, ≥G3): 0 n (%)
Amylase increased (600 mg BID, ≥G3): 0 n (%)
Anemia (600 mg BID, ≥G3): 0 n (%)
Any AE related to study drug (600 mg BID, ≥G3): 1 (25.0) n (%)
Asthenia (600 mg BID, ≥G3): 0 n (%)
Blood system disorders (600 mg BID, ≥G3): 0 n (%)
Blood triglycerides increased (600 mg BID, ≥G3): 0 n (%)
Cardiac disorders (600 mg BID, ≥G3): 0 n (%)
Chest discomfort (600 mg BID, ≥G3): 0 n (%)
Constipation (600 mg BID, ≥G3): 0 n (%)
Decreased appetite (600 mg BID, ≥G3): 0 n (%)
Diarrhea (600 mg BID, ≥G3): 0 n (%)
Dizziness (600 mg BID, ≥G3): 0 n (%)
Erectile dysfunction (600 mg BID, ≥G3): 0 n (%)
Gastrointestinal disorders (600 mg BID, ≥G3): 0 n (%)
General disorders (600 mg BID, ≥G3): 0 n (%)
Gingival bleeding (600 mg BID, ≥G3): 0 n (%)
Granulocyte count increased (600 mg BID, ≥G3): 0 n (%)
Headache (600 mg BID, ≥G3): 0 n (%)
Hypoalbuminemia (600 mg BID, ≥G3): 0 n (%)
Infusion site pain (600 mg BID, ≥G3): 0 n (%)
Limb discomfort (600 mg BID, ≥G3): 0 n (%)
Lipase increased (600 mg BID, ≥G3): 0 n (%)
Metabolic disorders (600 mg BID, ≥G3): 0 n (%)
Musculoskeletal discomfort (600 mg BID, ≥G3): 0 n (%)
Musculoskeletal disorders (600 mg BID, ≥G3): 0 n (%)
Nausea (600 mg BID, ≥G3): 0 n (%)
Nervous system disorders (600 mg BID, ≥G3): 0 n (%)
Neutrophil count decreased (600 mg BID, ≥G3): 0 n (%)
Neutrophil count increased (600 mg BID, ≥G3): 0 n (%)
Palpitations (600 mg BID, ≥G3): 0 n (%)
Protein urine present (600 mg BID, ≥G3): 0 n (%)
Proteinuria (600 mg BID, ≥G3): 0 n (%)
Rash (600 mg BID, ≥G3): 0 n (%)
Renal & urinary disorders (600 mg BID, ≥G3): 0 n (%)
Renal failure (600 mg BID, ≥G3): 0 n (%)
Reproductive disorders (600 mg BID, ≥G3): 0 n (%)
Skin disorders (600 mg BID, ≥G3): 0 n (%)
Urinary occult blood positive (600 mg BID, ≥G3): 0 n (%)
Vomiting (600 mg BID, ≥G3): 0 n (%)
WBC count decreased (600 mg BID, ≥G3): 0 n (%)
WBC count increased (600 mg BID, ≥G3): 0 n (%)
Infusion site pain (700 mg BID, ALL): 0 n (%)
WBC count increased (700 mg BID, ALL): 0 n (%)
ALT increased (700 mg BID, ≥G3): 0 n (%)
AST increased (700 mg BID, ≥G3): 0 n (%)
Abdominal distension (700 mg BID, ≥G3): 0 n (%)
Abdominal pain (700 mg BID, ≥G3): 0 n (%)
Abdominal pain upper (700 mg BID, ≥G3): 0 n (%)
Amylase increased (700 mg BID, ≥G3): 0 n (%)
Anemia (700 mg BID, ≥G3): 0 n (%)
Any AE related to study drug (700 mg BID, ≥G3): 0 n (%)
Asthenia (700 mg BID, ≥G3): 0 n (%)
Blood creatinine increased (700 mg BID, ≥G3): 0 n (%)
Blood system disorders (700 mg BID, ≥G3): 0 n (%)
Blood triglycerides increased (700 mg BID, ≥G3): 0 n (%)
Blood urea increased (700 mg BID, ≥G3): 0 n (%)
Cardiac disorders (700 mg BID, ≥G3): 0 n (%)
Chest discomfort (700 mg BID, ≥G3): 0 n (%)
Constipation (700 mg BID, ≥G3): 0 n (%)
Decreased appetite (700 mg BID, ≥G3): 0 n (%)
Diarrhea (700 mg BID, ≥G3): 0 n (%)
Dizziness (700 mg BID, ≥G3): 0 n (%)
Erectile dysfunction (700 mg BID, ≥G3): 0 n (%)
Gastrointestinal disorders (700 mg BID, ≥G3): 0 n (%)
General disorders (700 mg BID, ≥G3): 0 n (%)
Gingival bleeding (700 mg BID, ≥G3): 0 n (%)
Granulocyte count increased (700 mg BID, ≥G3): 0 n (%)
Headache (700 mg BID, ≥G3): 0 n (%)
Hypoalbuminemia (700 mg BID, ≥G3): 0 n (%)
Infusion site pain (700 mg BID, ≥G3): 0 n (%)
Laboratory test disorders (700 mg BID, ≥G3): 0 n (%)
Limb discomfort (700 mg BID, ≥G3): 0 n (%)
Lipase increased (700 mg BID, ≥G3): 0 n (%)
Metabolic disorders (700 mg BID, ≥G3): 0 n (%)
Musculoskeletal discomfort (700 mg BID, ≥G3): 0 n (%)
Musculoskeletal disorders (700 mg BID, ≥G3): 0 n (%)
Nausea (700 mg BID, ≥G3): 0 n (%)
Nervous system disorders (700 mg BID, ≥G3): 0 n (%)
Neutrophil count decreased (700 mg BID, ≥G3): 0 n (%)
Neutrophil count increased (700 mg BID, ≥G3): 0 n (%)
Palpitations (700 mg BID, ≥G3): 0 n (%)
Protein urine present (700 mg BID, ≥G3): 0 n (%)
Proteinuria (700 mg BID, ≥G3): 0 n (%)
Rash (700 mg BID, ≥G3): 0 n (%)
Renal & urinary disorders (700 mg BID, ≥G3): 0 n (%)
Renal failure (700 mg BID, ≥G3): 0 n (%)
Reproductive disorders (700 mg BID, ≥G3): 0 n (%)
Skin disorders (700 mg BID, ≥G3): 0 n (%)
Urinary occult blood positive (700 mg BID, ≥G3): 0 n (%)
Vomiting (700 mg BID, ≥G3): 0 n (%)
WBC count decreased (700 mg BID, ≥G3): 0 n (%)
WBC count increased (700 mg BID, ≥G3): 0 n (%)
Infusion site pain (850 mg BID, ALL): 0 n (%)
WBC count increased (850 mg BID, ALL): 1 (20.0) n (%)
ALT increased (850 mg BID, ≥G3): 0 n (%)
AST increased (850 mg BID, ≥G3): 0 n (%)
Abdominal distension (850 mg BID, ≥G3): 0 n (%)
Abdominal pain (850 mg BID, ≥G3): 1 (20) n (%)
Abdominal pain upper (850 mg BID, ≥G3): 0 n (%)
Amylase increased (850 mg BID, ≥G3): 0 n (%)
Anemia (850 mg BID, ≥G3): 0 n (%)
Any AE related to study drug (850 mg BID, ≥G3): 2 (40.0) n (%)
Asthenia (850 mg BID, ≥G3): 0 n (%)
Blood creatinine increased (850 mg BID, ≥G3): 2 (40.0) n (%)
Blood system disorders (850 mg BID, ≥G3): 0 n (%)
Blood triglycerides increased (850 mg BID, ≥G3): 0 n (%)
Blood urea increased (850 mg BID, ≥G3): 0 n (%)
Cardiac disorders (850 mg BID, ≥G3): 0 n (%)
Chest discomfort (850 mg BID, ≥G3): 0 n (%)
Constipation (850 mg BID, ≥G3): 0 n (%)
Decreased appetite (850 mg BID, ≥G3): 0 n (%)
Diarrhea (850 mg BID, ≥G3): 0 n (%)
Dizziness (850 mg BID, ≥G3): 0 n (%)
Erectile dysfunction (850 mg BID, ≥G3): 0 n (%)
Gastrointestinal disorders (850 mg BID, ≥G3): 1 (20) n (%)
General disorders (850 mg BID, ≥G3): 0 n (%)
Gingival bleeding (850 mg BID, ≥G3): 0 n (%)
Granulocyte count increased (850 mg BID, ≥G3): 0 n (%)
Headache (850 mg BID, ≥G3): 0 n (%)
Hypoalbuminemia (850 mg BID, ≥G3): 0 n (%)
Infusion site pain (850 mg BID, ≥G3): 0 n (%)
Laboratory test disorders (850 mg BID, ≥G3): 2 (40.0) n (%)
Limb discomfort (850 mg BID, ≥G3): 0 n (%)
Lipase increased (850 mg BID, ≥G3): 0 n (%)
Metabolic disorders (850 mg BID, ≥G3): 0 n (%)
